This experiment deals with T1, E. coli CsgA (Escherichia coli, UniProt P28307).
T1 construct: made in house; host or cells: E. coli NEB 3016 slyD::kan, pET11d
In words: In vitro ThioflavinT assay of CsgA aggregation (CsgA ThT Assay). Particulars: 1005 minutes; for remaining activity at 25 µM: compound 25 μM; for remaining activity at 100 µM: compound 100 μM. It is filed as biochemical. In short, it runs like this:
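Purified C-terminal His-tagged CsgA, monomerised by desalting and 30-kDa filtration, at 2-20 μM with 20-40 μM ThT in 50 mM potassium phosphate pH 7.3, 1% DMSO, compounds 3.125-200 uM; room temperature, fluorescence (ex 438/em 495 nm) read every 15 min. Background-subtracted signal expressed as percent inhibition versus vehicle at 6-6.5 or 8-9 h, or as percent control AUC.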

Where [1] appears, read: read-out: CsgA ThT Assay (10 μM CsgA) % Control AUC at 1005 minutes, 25 μM (activity range), CsgA 10 μM, black plates, class symbol.
Setting [2] is: read-out: CsgA ThT Assay (10 μM CsgA) % Control AUC at 1005 minutes, 25 μM, mean AUC as % of DMSO control, CsgA 10 μM, black plates.
Setting [3] is: read-out: CsgA ThT Assay (10 μM CsgA) % Control AUC at 1005 minutes, 100 μM (activity range), CsgA 10 μM, black plates, class symbol.
Where [4] appears, read: read-out: CsgA ThT Assay (10 μM CsgA) % Control AUC at 1005 minutes, 100 μM, mean AUC as % of DMSO control, CsgA 10 μM, black plates.

Data on 17 molecules can be found in patent publication US20230131899A1, “INHIBITORS OF MICROBIALLY INDUCED AMYLOID” (Axial Therapeutics, Inc., priority 2020, published 2023).

Each structure is given as a SMILES string. Where two headings read alike, the source gives them in different places.

T1 sequence (P28307 23-151): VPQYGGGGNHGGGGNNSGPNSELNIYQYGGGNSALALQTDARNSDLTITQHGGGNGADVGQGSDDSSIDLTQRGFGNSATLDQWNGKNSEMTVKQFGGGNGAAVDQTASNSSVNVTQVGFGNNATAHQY

As to `Cn1c(=O)c2c(ncn2CCCCCCCN2CC(C(=O)O)n3c(c(-c4cccc(C(F)(F)F)c4)c(Cc4cccc5ccccc45)cc3=O)S2(=O)=O)n(C)c1=O` (stereo not drawn) [Compound 036], the remaining activity at 25 µM was > 60% under setting [1] and 65% under setting [2].

As for `CNC(=O)CCCN1CC(C(=O)O)n2c(c(-c3cccc(C(F)(F)F)c3)c(Cc3cccc4ccccc34)cc2=O)S1(=O)=O` (stereo not drawn) [Compound 037, 2-(4-(methylamino)-4-oxobutyl)-8-(naphthalen-1-ylmethyl)-6-oxo-9-(3-(trifluoromethyl)phenyl)-3,4-dihydro-2H,6H-pyrido[1,2-e][1,2,5]thiadiazine-4-carboxylic acid 1,1-dioxide], the remaining activity at 25 µM by setting is: under setting [1], > 60%; under setting [2], 71%. The remaining activity at 100 µM by setting is: under setting [3], 31 to 60%; under setting [4], 53%.

In the case of `CNC(=O)CCCCN1CC(C(=O)O)n2c(c(-c3cccc(C(F)(F)F)c3)c(Cc3cccc4ccccc34)cc2=O)S1(=O)=O` (stereo not drawn) [Compound 038, 2-(5-(methylamino)-5-oxopentyl)-8-(naphthalen-1-ylmethyl)-6-oxo-9-(3-(trifluoromethyl)phenyl)-3,4-dihydro-2H,6H-pyrido[1,2-e][1,2,5]thiadiazine-4-carboxylic acid 1,1-dioxide], the remaining activity at 25 µM was > 60% under setting [1] and 86% under setting [2]. Besides, the remaining activity at 100 µM is 11 to 31% under setting [3] and 25% under setting [4].

Consider `Nc1c(Cc2ccc(N)c3ccccc23)c(-c2cccc(C(F)(F)F)c2)c2n(c1=O)C(C(=O)O)CNS2(=O)=O` (stereo not drawn) [Compound 041], for which the remaining activity at 25 µM reads like this: under setting [1], > 60%; under setting [2], 75%. Also, the remaining activity at 100 µM is 11 to 31% under setting [3] and 27% under setting [4].

On to `CC1(C(=O)O)CNS(=O)(=O)c2c(-c3cccc(C(F)(F)F)c3)c(Cc3cccc4ccccc34)cc(=O)n21` (stereo not drawn) [Compound 042, 4-methyl-8-(naphthalen-1-ylmethyl)-6-oxo-9-(3-(trifluoromethyl)phenyl)-3,4-dihydro-2H,6H-pyrido[1,2-e][1,2,5]thiadiazine-4-carboxylic acid 1,1-dioxide], for which the remaining activity at 25 µM is, setting by setting: under setting [1], 31 to 60%; under setting [2], 52%. In addition, the remaining activity at 100 µM runs as follows: under setting [3], 11 to 31%; under setting [4], 18%.

For the molecule `Cn1c(=O)c2c(nc(CCCCN3CC(C(=O)O)n4c(c(-c5cccc(C(F)(F)F)c5)c(Cc5cccc6ccccc56)cc4=O)S3(=O)=O)n2C)n(C)c1=O` (stereo not drawn) [Compound 044, 8-(naphthalen-1-ylmethyl)-6-oxo-9-(3-(trifluoromethyl)phenyl)-2-(4-(1,3,7-trimethyl-2,6-dioxo-2,3,6,7-tetrahydro-1H-purin-8-yl)butyl)-3,4-dihydro-2H,6H-pyrido[1,2-e][1,2,5]thiadiazine-4-carboxylic acid 1,1-dioxide], the remaining activity at 25 µM is 31 to 60% under setting [1] and 55% under setting [2]. Further, the remaining activity at 100 µM by setting is: under setting [3], 31 to 60%; under setting [4], 42%.

On to `Cn1c(=O)c2c(nc(CCCCCN3CC(C(=O)O)n4c(c(-c5cccc(C(F)(F)F)c5)c(Cc5cccc6ccccc56)cc4=O)S3(=O)=O)n2C)n(C)c1=O` (stereo not drawn) [Compound 045, 8-(naphthalen-1-ylmethyl)-6-oxo-9-(3-(trifluoromethyl)phenyl)-2-(5-(1,3,7-trimethyl-2,6-dioxo-2,3,6,7-tetrahydro-1H-purin-8-yl)pentyl)-3,4-dihydro-2H,6H-pyrido[1,2-e][1,2,5]thiadiazine-4-carboxylic acid 1,1-dioxide], for which the remaining activity at 25 µM was 31 to 60% under setting [1] and 59% under setting [2]. In addition, the remaining activity at 100 µM under setting [3] was 31 to 60% and the remaining activity at 100 µM under setting [4] is 53%.

As for `Cn1c(=O)c2c(nc(CCCCCCN3CC(C(=O)O)n4c(c(-c5cccc(C(F)(F)F)c5)c(Cc5cccc6ccccc56)cc4=O)S3(=O)=O)n2C)n(C)c1=O` (stereo not drawn) [Compound 046, 8-(naphthalen-1-ylmethyl)-6-oxo-9-(3-(trifluoromethyl)phenyl)-2-(6-(1,3,7-trimethyl-2,6-dioxo-2,3,6,7-tetrahydro-1H-purin-8-yl)hexyl)-3,4-dihydro-2H,6H-pyrido[1,2-e][1,2,5]thiadiazine-4-carboxylic acid 1,1-dioxide], the remaining activity at 25 µM was 31 to 60% under setting [1] and 55% under setting [2]. For the same molecule, the remaining activity at 100 µM is 31 to 60% under setting [3] and 55% under setting [4].

Take `Cn1c(=O)c2c(nc(CCCCCCCN3CC(C(=O)O)n4c(c(-c5cccc(C(F)(F)F)c5)c(Cc5cccc6ccccc56)cc4=O)S3(=O)=O)n2C)n(C)c1=O` (stereo not drawn) [Compound 047, 8-(naphthalen-1-ylmethyl)-6-oxo-9-(3-(trifluoromethyl)phenyl)-2-(7-(1,3,7-trimethyl-2,6-dioxo-2,3,6,7-tetrahydro-1H-purin-8-yl)heptyl)-3,4-dihydro-2H,6H-pyrido[1,2-e][1,2,5]thiadiazine-4-carboxylic acid 1,1-dioxide]: the remaining activity at 25 µM is 31 to 60% under setting [1] and 55% under setting [2]. For the same molecule, the remaining activity at 100 µM was > 60% under setting [3] and 71% under setting [4].

With `O=C(O)c1c(-c2ccccc2)sc2c(-c3cccc(C(F)(F)F)c3)c(Cc3cccc4ccccc34)cc(=O)n12` [Compound 051, 7-(naphthalen-1-ylmethyl)-5-oxo-2-phenyl-8-(3-(trifluoromethyl)phenyl)-5H-thiazolo[3,2-a]pyridine-3-carboxylic acid], the remaining activity at 25 µM was > 60% under setting [1] and 81% under setting [2]. For the same molecule, the remaining activity at 100 µM by setting is: under setting [3], 31 to 60%; under setting [4], 54%.

For the molecule `O=C(O)C1n2c(c(-c3cccc(C(F)(F)F)c3)c(Cc3cccc4ccccc34)nc2=O)SC12CCCC2` (stereo not drawn) [Compound 053, 7′-(naphthalen-1-ylmethyl)-5′-oxo-8′-(3-(trifluoromethyl)phenyl)-3′H,5′H-spiro[cyclopentane-1,2′-thiazolo[3,2-c]pyrimidine]-3′-carboxylic acid], the remaining activity at 25 µM is 31 to 60% under setting [1] and 39% under setting [2]. The remaining activity at 100 µM under setting [3] was 11 to 31% and the remaining activity at 100 µM under setting [4] came to 12%.

Regarding `O=C(O)C1CSc2c(-c3cccc(C(F)(F)F)c3)c(Cc3cccc4ccccc34)cc(=S)n21` (stereo not drawn) [Compound 054, 7-(naphthalen-1-ylmethyl)-5-thioxo-8-(3-(trifluoromethyl)phenyl)-2,3-dihydro-5H-thiazolo[3,2-a]pyridine-3-carboxylic acid], the remaining activity at 25 µM is 31 to 60% under setting [1] and 44% under setting [2]. The remaining activity at 100 µM was 31 to 60% under setting [3] and 50% under setting [4].

Consider `O=C(O)C1CN(CCCO)S(=O)(=O)c2c(-c3cccc(C(F)(F)F)c3)c(Cc3cccc4ccccc34)cc(=O)n21` (stereo not drawn) [Compound 056, 2-(3-hydroxypropyl)-8-(naphthalen-1-ylmethyl)-6-oxo-9-(3-(trifluoromethyl)phenyl)-3,4-dihydro-2H,6H-pyrido[1,2-e][1,2,5]thiadiazine-4-carboxylic acid 1,1-dioxide], for which the remaining activity at 25 µM by setting is: under setting [1], 31 to 60%; under setting [2], 38%. The remaining activity at 100 µM under setting [3] is 31 to 60% and the remaining activity at 100 µM under setting [4] turned out to be 34%.

Consider `O=C(O)C1CSc2c(-c3cccc(C(F)(F)F)c3)c(Cc3cccc4ccccc34)c(CO)c(=O)n21` (stereo not drawn) [Compound 057, 6-(hydroxymethyl)-7-(naphthalen-1-ylmethyl)-5-oxo-8-(3-(trifluoromethyl)phenyl)-2,3-dihydro-5H-thiazolo[3,2-a]pyridine-3-carboxylic acid], for which the remaining activity at 25 µM reads like this: under setting [1], 31 to 60%; under setting [2], 59%. Further, the remaining activity at 100 µM under setting [3] was 11 to 31% and the remaining activity at 100 µM under setting [4] is 24%.

Consider `CC1(C)Sc2c(-c3cccc(C(F)(F)F)c3)c(Cc3cccc4ccccc34)nc(=O)n2C1C(=O)O` (stereo not drawn) [Compound 059, 2,2-dimethyl-7-(naphthalen-1-ylmethyl)-5-oxo-8-(3-(trifluoromethyl)phenyl)-2,3-dihydro-5H-thiazolo[3,2-c]pyrimidine-3-carboxylic acid], for which the remaining activity at 25 µM by setting is: under setting [1], > 60%; under setting [2], 63%. The remaining activity at 100 µM is 11 to 31% under setting [3] and 22% under setting [4].

Turning to `O=C(O)c1c(CCc2ccccc2)sc2c(-c3cccc(C(F)(F)F)c3)c(Cc3cccc4ccccc34)cc(=O)n12` [Compound 062, 7-(naphthalen-1-ylmethyl)-5-oxo-2-phenethyl-8-(3-(trifluoromethyl)phenyl)-5H-thiazolo[3,2-a]pyridine-3-carboxylic acid], the remaining activity at 25 µM reads like this: under setting [1], > 60%; under setting [2], 77%. Further, the remaining activity at 100 µM was > 60% under setting [3] and 97% under setting [4].

In the case of `O=C(O)C1COc2c(-c3cccc(C(F)(F)F)c3)c(Cc3cccc4ccccc34)cc(=O)n21` (stereo not drawn) [Compound 064, 7-(naphthalen-1-ylmethyl)-5-oxo-8-(3-(trifluoromethyl)phenyl)-2,3-dihydro-5H-oxazolo[3,2-a]pyridine-3-carboxylic acid], the remaining activity at 25 µM is 31 to 60% under setting [1] and 45% under setting [2]. Also, the remaining activity at 100 µM is 11 to 31% under setting [3] and 16% under setting [4].
